The values that follow come from patent US20110136728A1, “METHODS OF INCREASING BONE FORMATION USING LEPTIN-RELATED PEPTIDES” (priority 2009, published 2011).

As a reminder, the bioavailability is the share of a dose that reaches the circulation, judged against a reference dose that is usually intravenous. A high value points to much systemic uptake. Usually Tmax stands for the time from dosing to the highest level.

One series has as its system ob/ob mouse model. Conditions: Grasso et al., Regu. Pept. 101:123-129 (2001); cited from earlier work.
On the set-up of series [1]: species or system male Swiss Webster mice. Conditions: mouse, in vivo. As to the method: Six week-old male Swiss Webster mice weighing approximately 30 g were obtained from Taconic Farms (Germantown, N.Y., USA). The animals were housed three per cage in polycarbonate cages fitted with stainless steel wire lids and air filters, and supported on ventilated racks (Thoren Caging Systems, Hazelton, Pa., USA) in the Albany Medical College Animal Resources Facility. The mice were maintained at a constant temperature (24° C.) with lights on from 07:00 to 19:00 h, and allowed food and water ad libitum until used for uptake studies. Mouse [[…]]OB3 was prepared commercially as a C-terminal amide by Bachem (Torrance, Calif., USA). For oral delivery, mouse [[…]]-OB3 was dissolved in either phosphate buffered saline (PBS, pH 7.2) or 0.3% […] Therapeutics, San Diego, Calif. USA) reconstituted in water, at a concentration of 1 mg/200 ul and administered by gavage. Is has been previously shown that this concentration to be optimum for regulating energy expenditure, glycemic control, and insulin sensitivity in two genetically obese mouse models. (See Grasso P. et al., Regulatory Pept. 101:123-9 (2001); Grasso P. et al., Regulatory Pept. 85:93-100 (1999); Grasso P. et al., Endocrinology 138:1413-8 (1997); Grasso P. et al., Diabetes 48:2204-9 (1999); and Rozhayskaya-Arena M. et al., Endocrinology 141:2501-7 (2000)). At time zero (0), 200 μl mouse [[…]]-OB3 in PBS or 0.3% […]® was delivered by gavage to each mouse. Following peptide administration, the mice were transferred to separate cages for the designated time period. Five, 10, 20, 40, 60, or 120 min after peptide delivery, the mice (six per time point) were anesthetized with isoflurane (5%) and exsanguinated by cardiac puncture. Euthanasia was confirmed by cervical dislocation. The blood was collected in sterile nonheparinized plastic centrifuge tubes and allowed to stand at room temperature for 1 h. The clotted blood was rimmed from the walls of the tubes with sterile wooden applicator sticks. Individual serum samples were prepared by centrifugation for 30 min at 2600×g in an Eppendorf […], A-4-38 rotor (Eppendorf North America, Westbury, N.Y., USA), The serum samples in each experimental group (n=6) were pooled and stored frozen until assayed for mouse [[…]]-OB3 content by competitive ELISA. Mouse [[…]]-OB3 content of the pooled serum samples was measured by a competitive ELISA developed and validated in our laboratory as previously described. (See Novakovic Z. et al., Regulatory Pept. 154:107-11 (2009)). Serum concentrations of mouse [[…]]OB3 vs. time following oral delivery were plotted using the graphics program SigmaPlot 8.0 (SPSS Science, Chicago, Ill., USA). The area under the curve (AUC) was calculated with a function of this program. The lowest AUC value obtained was arbitrarily set at 1.0. Relative bioavailabilty was determined by comparing all other AUC values to 1.0. The period of time required for the serum concentration of mouse [[…]]-OB3 to be reduced to exactly one-half of the maximum concentration achieved following oral administration of mouse [[…]]-OB3 in the absence or presence of […]® was calculated using the following equation: […] Clearance of mouse [[…]]-OB3 from the plasma following oral delivery was calculated from the AUC using the following equation: CL=Dose/AUC Since the half-life of a drug is inversely related to its clearance from the plasma and directly proportional to its volume of distribution, the apparent volume of distribution of mouse [[…]]-OB3 following oral delivery was calculated from its half-life and clearance using the following equation: […] The relative oral bioavailability of mouse [[…]]-OB3 delivered in […]® was compared to the relative bioavailabilities of intranasal and three commonly used injection methods of delivery recently reported. (See Oliveira Jr. V X. et al., J. Pept. Sci. 14:617-25 (2008)). […]

Non-standard residues stand in square brackets, D forms with d. Residues, ends and D or L forms follow the SMILES beside them.

For the molecule `CC(C)C[C@@H](NC(=O)[C@H](CO)NC(=O)[C@H](CS)NC(=O)[C@@H](N)CO)C(=O)N1CCC[C@H]1C(=O)N[C@@H](CCC(N)=O)C(=O)N[C@H](C(N)=O)[C@@H](C)O` [mouse [D-Leu-4]-OB3] (H-SCS[dL]PQT-NH2; N-terminus assumed), the “tissue sensitivity to insulin” value in the series on ob/ob mouse model is “increases tissue sensitivity to insulin”. Further, the Relative oral bioavailability in series [1] came out at 52.2%. This molecule also came in with a bioavailability in series [1] (Relative oral bioavailability) of 47.3%. For the same molecule, in series [1] (po, 1 mg), the “Maximum uptake (Cmax) in Intravail relative to PBS” value was 3.6 fold, the “Plasma CL in PBS compared with Intravail” value is listed as “four times faster”, the Tmax is 50 min and the “t1/2 (serum half-life)” value came out at 20.15 min. The tmax in series [1] (po, 1 mg) came to 50 min.
